Experiments:
[1] = molecular target: T1, HIV-1 Nucleocapsid Protein (NCp7) (Human immunodeficiency virus type 1 group M subtype B, UniProt P12493); experiment: Zinc extrusion assay (TSQ fluorescence) from the zinc fingers of HIV-1 nucleocapsid protein (NCp7); assay type: biochemical; conditions: 10 μM compound, 2.8 μM NCp7, pH 7.4, 26° C., 90 minutes
T1 construct: The NCp7 protein containing 2 Zn-fingers and 2 Zn ions is incubated with drug
Excerpt: The compounds of the present invention cause the extrusion of zinc from the nucleocapsid protein (NCp7) of HIV-1. The NC protein is highly conserved among all retroviruses (South T., Blake P., et al., Biochemistry, 1990;29:7786) and is essential for viral infectivity (Aldovini A. and Young R., J. Virology, 1990;64:1920 and Gorelick R., Nigida S., et al., J. Virology, 1990;64:3207). The zinc is normally held in NC proteins by 1 or 2 zinc fingers. In the case of HIV-1, 2 zinc fingers are present (Summers M., South T., et al., Biochemistry, 1990;29:329) and are involved specifically with the PSI site on viral RNA which controls the packaging of viral RNA. Interference of this packaging causes the formation of non-infectious virions (Dannull J., Surovoy A., et al., EMBO, 1994;13:1525). It has previously been shown that compounds that cause zinc extrusion have potent anti-HIV activity in multiple cell lines and against all retroviruses (Rice W., Schaeffer C., et al., Nature, 1993;361:473).
A fluorescence-based assay has been developed to monitor the ejection of zinc from purified HIV-1 NCp7. The fluorophore, N-(6-methoxy-8-quinolyl)-p-toluenesulfonamide (TSQ), has an increased fluorescent signal upon bonding zinc ion in solution. The NCp7 protein containing 2 Zn-fingers and 2 Zn ions is incubated with drug causing the extrusion of Zn ions. The released Zn is then sequestered by the TSQ and the increased fluorescence monitored relative to control. […] Fluorescence (excitation 355 nm emission 400 nm) was monitored versus time. Controls were the NCp7 under assay conditions without drug, and apo NCp7 (no Zn) with drug. The % Zn extrusion was calculated based on the actual fluorescence measured divided by the fluorescence of all theoretical Zn extruded (5.6 μM)×100.
Table 1 below presents data for several invention compounds evaluated in the zinc extrusion assay described above.

[2] = CEM cell growth inhibition (XTT, noninfected cells); assay type: cell-based; conditions: human, CEM Cell Assay, drug alone, read-out: IC50 (Inhibitory Concentration where drug alone inhibits cell growth)
Description: (§1) Yet another test system employed to determine antiviral activity is called the CEM cell assay.
(§2) T4 lymphocytes (CEM cell line) are exposed to HIV at a virus to cell ratio approximately 0.05, and plated along with noninfected control cells in 96-well microliter plates.
(§3) The candidate agent is dissolved in dimethyl sulfoxide (unless otherwise noted), then diluted 1:200 in cell culture medium. Further dilutions (half-log10) are prepared before adding to an equal volume of medium containing either infected or noninfected cells. Cultures are incubated at 37° in a 5% carbon dioxide atmosphere for 6 or 7 days. The tetrazolium salt, XTT, is added to all wells, and cultures are incubated to allow formazan color development by viable cells (J. National Cancer Institute, 1989;81:577-586). Individual wells are analyzed spectrophotometrically to quantitate formazan production, and in addition are viewed microscopically for detection of viable cells confirmation of protective activity.
(§4) Drug-tested virus-infected cells are compared with drug-treated noninfected cells and with other appropriate controls (untreated infected and untreated noninfected cells, drug-contain wells without cells, etc.) on the same plate. Data are reviewed in comparison with other tests done at the same time and a determination about activity is made.

[3] = system: HIV-1; experiment: CEM cell assay, anti-HIV-1 activity; assay type: cell-based; conditions: Human immunodeficiency virus 1, CCRF-CEM, HIV-1, 6 or 7 days, read-out: EC50 (Effective Concentration which protects cells from viral cytopathic effects)
Excerpt: The test systems utilized to establish the antiviral activity of the arylthio compounds of this invention are well recognized in the art and are routinely employed for such purpose. For example, the assay utilized to evaluate the compounds activity against the HIV virus is that employed by the U.S. National Cancer Institute as described by Weislow O. S., et al., J. Natl. Cancer Inst., 1989;81:577-586, incorporated herein by reference.
The procedure is designed to detect agents acting at any stage of the virus reproductive cycle. The assay basically involves the killing of T4 lymphocytes by HIV. Small amounts of HIV are added to cells, and at least two complete cycles of virus reproduction are necessary to obtain the required cell killing. Agents which interact with virions, cells, or virus gene-products to interfere with viral activities will protect cells from cytolysis. The system is automated in several features to accommodate large numbers of candidate agents, and is generally designed to detect anti-HIV activity. However, compounds which degenerate or are rapidly metabolized in the culture conditions may not show activity in this screen.
as §1, §2, §3, §4

Question: What does the source list for `NS(=O)(=O)c1ccc(CNC(=O)c2ccccc2SSc2ccccc2C(=O)NCc2ccc(S(N)(=O)=O)cc2)cc1` [Example 12, 2,2'-Dithiobis[N-[[4-(aminosulfonyl)phenyl]methy]benzamide]]?
Answer: % Zinc Extrusion Relative to Control [1]: 27%; CC50 [2]: 21 µM; EC50 [3]: 0.59 µM

Question: Which “% Zinc Extrusion Relative to Control” value [1] does the source give for `O=C(N[C@@H](C(=O)O)c1ccccc1)c1ccccc1SSc1ccccc1C(=O)N[C@@H](C(=O)O)c1ccccc1` [Example 68, [R-(R*,R*)] (2-{2-[(Carboxy-phenyl-methyl)-carbamoyl]phenyldisulfanyl}-benzoylamino)-phenyl-acetic acid] here?
Answer: Its value is 89%.

Question: And the CC50 [2]?
Answer: Its CC50 is > 100 µM.

Question: What about the EC50 [3] of the same compound?
Answer: Its EC50 is 25 µM.

Question: For `NC(=O)c1cc(NC(=O)C(F)(F)F)ccc1SSc1ccc(NC(=O)C(F)(F)F)cc1C(N)=O` [Example 74], which “% Zinc Extrusion Relative to Control” value [1] is on record?
Answer: Its value is 59%.

Question: What about the CC50 [2] of the same compound?
Answer: The CC50 was 67 µM.

Question: What about the EC50 [3] of the same compound?
Answer: Its EC50 is 6.3 µM.

Question: Which results are given for `NC(=O)c1cc(NC(=O)c2ccccc2)ccc1SSc1ccc(NC(=O)c2ccccc2)cc1C(N)=O` [Example 75, 2,2'-Dithiobis[5-(benzoylamino)-benzamide]]?
Answer: % Zinc Extrusion Relative to Control [1]: 52%; CC50 [2]: 59 µM; EC50 [3]: 5.3 µM

Question: Which “% Zinc Extrusion Relative to Control” value [1] does the source give for `O=C(O)CCNC(=O)c1ccccc1SSc1ccccc1C(=O)NCCC(=O)O` [Example 76, 3,3'-[Dithiobis(2,1-phenylenecarbonylimino)]bis-propionic acid] here?
Answer: The value was 82%.

Question: And the CC50 [2]?
Answer: Its CC50 is > 100 µM.

Question: And the EC50 [3]?
Answer: The EC50 was 6.2 µM.

Question: For `CC(SSc1ccccc1C(=O)Nc1ccc(S(N)(=O)=O)cc1)C(=O)O` (centres unmarked) [Example 132, 2-[2-(4-Sulfamoylphenylcarbamoyl)phenyldisulfanyl]propionic acid], which “% Zinc Extrusion Relative to Control” value [1] is on record?
Answer: Its value is 70%.

Question: And the CC50 [2]?
Answer: The CC50 was > 100 µM.

Question: What about the EC50 [3] of the same compound?
Answer: The EC50 was 2.8 µM.

Question: Which “% Zinc Extrusion Relative to Control” value [1] does the source give for `COC(=O)[C@H](CSSc1ccccc1C(=O)Nc1ccc(S(N)(=O)=O)cc1)NC(C)=O` [Example 133, 2-Acetylamino-3-[2-(4-sulfamoylphenylcarbamoyl)phenyldisulfanyl]-propionicacid, methyl ester] here?
Answer: The value was 53%.

Question: And the CC50 [2]?
Answer: The CC50 was 69 µM.

Question: And the EC50 [3]?
Answer: Its EC50 is 6.7 µM.

Question: Which “% Zinc Extrusion Relative to Control” value [1] does the source give for `CC(=O)N[C@@H](CSSc1ccccc1C(=O)Nc1ccc(S(N)(=O)=O)cc1)C(=O)O` [Example 134, 2-Acetylamino-3-[2-(4-sulfamoylphenylcarbamoyl)phenyldisulfanyl]-propionic acid] here?
Answer: Its value is 77%.

Question: What about the CC50 [2] of the same compound?
Answer: The CC50 was > 100 µM.

Question: And the EC50 [3]?
Answer: The EC50 was 6.9 µM.

Question: For `CC(SSc1ccccc1C(=O)Nc1ccc(S(N)(=O)=O)cc1)C(=O)NCC(=O)O` (centres unmarked) [Example 135, {2-[2-(4-Sulfamoylphenylcarbamoyl)phenyldisulfanyl]propionylamino}-acetic acid], which “% Zinc Extrusion Relative to Control” value [1] is on record?
Answer: Its value is 40%.

Question: And the CC50 [2]?
Answer: Its CC50 is > 100 µM.

Question: And the EC50 [3]?
Answer: The EC50 was 5.8 µM.

Question: For `CC(C)(SSc1ccccc1C(=O)Nc1ccc(S(N)(=O)=O)cc1)C(N)C(=O)O` (centres unmarked) [Example 138, 2-Amino-3-methyl-3-[2-(4-sulfamoylphenylcarbamoyl)phenyldisulfanyl]-butyric acid], which CC50 [2] is on record?
Answer: Its CC50 is 66 µM.

Question: And the EC50 [3]?
Answer: Its EC50 is 6.3 µM.

Question: Which “% Zinc Extrusion Relative to Control” value [1] does the source give for `COC(=O)[C@H](N)C(C)(C)SSc1ccccc1C(=O)Nc1ccc(S(N)(=O)=O)cc1` [Example 139, 2-Amino-3-methyl-3-[2-(4-sulfamoylphenylcarbamoyl)phenyldisulfanyl]-butyric acid, methyl ester] here?
Answer: Its value is 70%.

Question: What about the CC50 [2] of the same compound?
Answer: The CC50 was > 100 µM.

Question: What about the EC50 [3] of the same compound?
Answer: Its EC50 is 6.9 µM.

Question: What does the source list for `CN(C(=O)c1ccccc1SSc1ccccc1C(=O)N(C)c1ccc(S(N)(=O)=O)cc1)c1ccc(S(N)(=O)=O)cc1` [Example 142]?
Answer: % Zinc Extrusion Relative to Control [1]: 84%; CC50 [2]: > 100 µM; EC50 [3]: 17 µM

Question: Which “% Zinc Extrusion Relative to Control” value [1] does the source give for `NS(=O)(=O)c1cc(Cl)ccc1SSc1ccc(Cl)cc1S(N)(=O)=O` [Example 148, 2,2'-Dithiobis[5-chloro]-benzenesulfonamide] here?
Answer: Its value is 92%.

Question: And the CC50 [2]?
Answer: The CC50 was 30 µM.

Question: What about the EC50 [3] of the same compound?
Answer: Its EC50 is 12 µM.
